Reference: patent publication US20250145594A1, “MODULATORS OF THE INTEGRATED STRESS PATHWAY” (Calico Life Sciences LLC, priority 2020, published 2025)

System: ATF4 luciferase reporter in HEK293T cells
Test: ATF4-Luc assay (in vitro model of VWMD)
Format: cell-based, human
Settings: Homo sapiens, HEK-293T, 7 h, HEK293T cells carrying the ATF4 luciferase reporter, 1 μg/mL tunicamycin, One Glo luminescence
Method in brief: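 Tunicamycin (1 μg/mL) stress with co-added compound for 7 hours in HEK293T cells stably carrying an ATF4 5′-UTR–luciferase reporter. EC50 values come from the luminescent signal (One Glo).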

Question: `O=C(NC12CC(c3ccnc(-n4cc(C(F)(F)F)cn4)c3)(C1)C2)[C@H]1C[C@@H](O)c2cc(Cl)c(F)cc2O1` [Compound 561, (2R,4R)-6-chloro-7-fluoro-4-hydroxy-N-(3-{2-[4-(trifluoromethyl)-1H-pyrazol-1-yl]pyridin-4-yl}bicyclo[1.1.1]pentan-1-yl)-3,4-dihydro-2H-1-benzopyran-2-carboxamide] was tested. Which EC50 did it give?
Answer: The EC50 was less than 10 nM.

Question: With `O=C(NC12CC(n3cc(-c4ccn(C(F)(F)F)n4)cn3)(C1)C2)[C@H]1C[C@@H](O)c2cc(Cl)c(F)cc2O1` [Compound 562, (2R,4R)-6-chloro-7-fluoro-4-hydroxy-N-{3-[1-(trifluoromethyl)-1H,1′H-[3,4‘-bipyrazol]-1’-yl]bicyclo[1.1.1]pentan-1-yl}-3,4-dihydro-2H-1-benzopyran-2-carboxamide] as the compound, how does the EC50 read?
Answer: Its EC50 is less than 10 nM.

Question: With `O=C(NC12CC(n3cc(-c4cnn(CC(F)(F)F)c4)cn3)(C1)C2)[C@H]1C[C@@H](O)c2cc(Cl)ccc2O1` [Compound 563, (2R,4R)-6-chloro-4-hydroxy-N-{3-[1′-(2,2,2-trifluoroethyl)-1H,1′H-[4,4′-bipyrazol]-1-yl]bicyclo[1.1.1]pentan-1-yl}-3,4-dihydro-2H-1-benzopyran-2-carboxamide] as the compound, how does the EC50 read?
Answer: Its EC50 is less than 10 nM.

Question: Which EC50 does the source give for `O=C(NC12CC(n3cc(-c4cnn(CC(F)(F)F)c4)cn3)(C1)C2)[C@H]1C[C@@H](O)c2cc(Cl)c(F)cc2O1` [Compound 564, (2R,4R)-6-chloro-7-fluoro-4-hydroxy-N-{3-[1′-(2,2,2-trifluoroethyl)-1H,1′H-[4,4′-bipyrazol]-1-yl]bicyclo[1.1.1]pentan-1-yl}-3,4-dihydro-2H-1-benzopyran-2-carboxamide] here?
Answer: The EC50 was less than 10 nM.

Question: For `O=C(NC12CC(n3cc(-c4cnn(CC(F)(F)F)c4)cn3)(C1)C2)[C@H]1C[C@@H](O)c2cc(Cl)c(Cl)cc2O1` [Compound 565, (2R,4R)-6,7-dichloro-4-hydroxy-N-{3-[1′-(2,2,2-trifluoroethyl)-1H,1′H-[4,4′-bipyrazol]-1-yl]bicyclo[1.1.1]pentan-1-yl}-3,4-dihydro-2H-1-benzopyran-2-carboxamide], which EC50 is on record?
Answer: Its EC50 is less than 10 nM.

Question: `O=C(NC12CC(n3cc(-c4ccc(OC(F)(F)F)cn4)cn3)(C1)C2)[C@H]1C[C@@H](O)c2cc(Cl)c(Cl)cc2O1` [Compound 566, (2R,4R)-6,7-dichloro-4-hydroxy-N-(3-{4-[5-(trifluoromethoxy)pyridin-2-yl]-1H-pyrazol-1-yl}bicyclo[1.1.1]pentan-1-yl)-3,4-dihydro-2H-1-benzopyran-2-carboxamide] was tested. Which EC50 did it give?
Answer: The EC50 was less than 10 nM.

Question: With `O=C(NC12CC(n3cc(-c4ccc(C(F)(F)F)cn4)cn3)(C1)C2)[C@H]1C[C@@H](O)c2cc(Cl)c(Cl)cc2O1` [Compound 567, (2R,4R)-6,7-dichloro-4-hydroxy-N-(3-{4-[5-(trifluoromethyl)pyridin-2-yl]-1H-pyrazol-1-yl}bicyclo[1.1.1]pentan-1-yl)-3,4-dihydro-2H-1-benzopyran-2-carboxamide] as the compound, how does the EC50 read?
Answer: Its EC50 is less than 10 nM.

Question: Which EC50 does the source give for `O=C(NC12CC(n3cc(-c4ccc(C(F)F)cn4)cn3)(C1)C2)[C@H]1C[C@@H](O)c2cc(Cl)ccc2O1` [Compound 568, (2R,4R)-6-chloro-N-(3-{4-[5-(difluoromethyl)pyridin-2-yl]-1H-pyrazol-1-yl}bicyclo[1.1.1]pentan-1-yl)-4-hydroxy-3,4-dihydro-2H-1-benzopyran-2-carboxamide] here?
Answer: Its EC50 is less than 10 nM.

Question: With `O=C(NC12CC(n3cc(-c4ccc(C(F)F)cn4)cn3)(C1)C2)[C@H]1C[C@@H](O)c2cc(Cl)c(F)cc2O1` [Compound 569, (2R,4R)-6-chloro-N-(3-{4-[5-(difluoromethyl)pyridin-2-yl]-1H-pyrazol-1-yl}bicyclo[1.1.1]pentan-1-yl)-7-fluoro-4-hydroxy-3,4-dihydro-2H-1-benzopyran-2-carboxamide] as the compound, how does the EC50 read?
Answer: Its EC50 is less than 10 nM.

Question: Which EC50 does the source give for `O=C(NC12CC(n3cc(-c4ccc(C5CC5)cn4)cn3)(C1)C2)[C@H]1C[C@@H](O)c2cc(Cl)ccc2O1` [Compound 570, (2R,4R)-6-chloro-N-{3-[4-(5-cyclopropylpyridin-2-yl)-1H-pyrazol-1-yl]bicyclo[1.1.1]pentan-1-yl}-4-hydroxy-3,4-dihydro-2H-1-benzopyran-2-carboxamide] here?
Answer: The EC50 was less than 10 nM.

Question: `O=C(NC12CC(n3cc(-c4ccc(C5CC5)cn4)cn3)(C1)C2)[C@H]1C[C@@H](O)c2cc(Cl)c(F)cc2O1` [Compound 571, (2R,4R)-6-chloro-N-{3-[4-(5-cyclopropylpyridin-2-yl)-1H-pyrazol-1-yl]bicyclo[1.1.1]pentan-1-yl}-7-fluoro-4-hydroxy-3,4-dihydro-2H-1-benzopyran-2-carboxamide] was tested. Which EC50 did it give?
Answer: The EC50 was less than 10 nM.

Question: How did the EC50 turn out when `O=C(NC12CC(n3cc(-c4ccc(C(F)(F)F)cn4)cn3)(C1)C2)[C@H]1CNc2cc(Cl)ccc2O1` [Compound 572, (2R)-6-chloro-N-(3-{4-[5-(trifluoromethyl)pyridin-2-yl]-1H-pyrazol-1-yl}bicyclo[1.1.1]pentan-1-yl)-3,4-dihydro-2H-1,4-benzoxazine-2-carboxamide] was run?
Answer: Its EC50 is less than 10 nM.

Question: How did the EC50 turn out when `O=C(NC12CC(n3cc(-c4ccc(C(F)(F)F)cn4)cn3)(C1)C2)[C@@H]1CNc2cc(Cl)ccc2O1` [Compound 573, (2S)-6-chloro-N-(3-{4-[5-(trifluoromethyl)pyridin-2-yl]-1H-pyrazol-1-yl}bicyclo[1.1.1]pentan-1-yl)-3,4-dihydro-2H-1,4-benzoxazine-2-carboxamide] was run?
Answer: The EC50 was 10 to 50 nM.

Question: For `O=C(NC12CC(n3cc(-c4ccc(C(F)(F)F)cn4)cn3)(C1)C2)C1CNc2cc(Cl)c(F)cc2O1` (stereo not drawn) [Compound 574, 6-chloro-7-fluoro-N-(3-{4-[5-(trifluoromethyl)pyridin-2-yl]-1H-pyrazol-1-yl}bicyclo[1.1.1]pentan-1-yl)-3,4-dihydro-2H-1,4-benzoxazine-2-carboxamide], which EC50 is on record?
Answer: The EC50 was less than 10 nM.

Question: Which EC50 does the source give for `O=C(NC12CC(n3cc(-c4ccc(OC(F)F)cn4)cn3)(C1)C2)[C@H]1C[C@@H](O)c2cc(Cl)ccc2O1` [Compound 575, (2R,4R)-6-chloro-N-(3-{4-[5-(difluoromethoxy)pyridin-2-yl]-1H-pyrazol-1-yl}bicyclo[1.1.1]pentan-1-yl)-4-hydroxy-3,4-dihydro-2H-1-benzopyran-2-carboxamide] here?
Answer: The EC50 was less than 10 nM.

Question: `O=C(NC12CC(n3cc(-c4ccc(OC(F)F)cn4)cn3)(C1)C2)[C@H]1C[C@@H](O)c2cc(Cl)c(F)cc2O1` [Compound 576, (2R,4R)-6-chloro-N-(3-{4-[5-(difluoromethoxy)pyridin-2-yl]-1H-pyrazol-1-yl}bicyclo[1.1.1]pentan-1-yl)-7-fluoro-4-hydroxy-3,4-dihydro-2H-1-benzopyran-2-carboxamide] was tested. Which EC50 did it give?
Answer: Its EC50 is less than 10 nM.

Question: For `O=C(N[C@H]1CC[C@H](n2cc(-c3ccc(C(F)(F)F)cn3)cn2)CC1)[C@H]1C[C@@H](O)c2cc(Cl)ccc2O1` [Compound 577, (2R,4R)-6-chloro-4-hydroxy-N-[(1r,4R)-4-{4-[5-(trifluoromethyl)pyridin-2-yl]-1H-pyrazol-1-yl}cyclohexyl]-3,4-dihydro-2H-1-benzopyran-2-carboxamide], which EC50 is on record?
Answer: Its EC50 is less than 10 nM.

Question: `O=C(N[C@H]1CC[C@H](n2cc(-c3ccc(C(F)(F)F)cn3)cn2)CC1)[C@H]1C[C@@H](O)c2cc(Cl)c(F)cc2O1` [Compound 578, (2R,4R)-6-chloro-7-fluoro-4-hydroxy-N-[(1r,4R)-4-{4-[5-(trifluoromethyl)pyridin-2-yl]-1H-pyrazol-1-yl}cyclohexyl]-3,4-dihydro-2H-1-benzopyran-2-carboxamide] was tested. Which EC50 did it give?
Answer: Its EC50 is less than 10 nM.

Question: `O=C(NC12CC(n3cc(N4CC[C@@H](OC(F)(F)F)C4)cn3)(C1)C2)[C@H]1C[C@@H](O)c2cc(C(F)(F)F)ccc2O1` [Compound 579, (2R,4R)-4-hydroxy-N-(3-{4-[(3R)-3-(trifluoromethoxy)pyrrolidin-1-yl]-1H-pyrazol-1-yl}bicyclo[1.1.1]pentan-1-yl)-6-(trifluoromethyl)-3,4-dihydro-2H-1-benzopyran-2-carboxamide] was tested. Which EC50 did it give?
Answer: The EC50 was less than 10 nM.

Question: `O=C(NC12CC(n3cc(C4CCN(CC(F)(F)F)CC4)cn3)(C1)C2)[C@H]1C[C@@H](O)c2cc(Cl)ccc2O1` [Compound 580, (2R,4R)-6-chloro-4-hydroxy-N-(3-{4-[1-(2,2,2-trifluoroethyl)piperidin-4-yl]-1H-pyrazol-1-yl}bicyclo[1.1.1]pentan-1-yl)-3,4-dihydro-2H-1-benzopyran-2-carboxamide] was tested. Which EC50 did it give?
Answer: The EC50 was less than 10 nM.

Question: Which EC50 does the source give for `O=C(N[C@H]1CC[C@H](n2cc(N3CC[C@@H](OC(F)(F)F)C3)cn2)CC1)[C@H]1C[C@@H](O)c2cc(Cl)ccc2O1` [Compound 581, (2R,4R)-6-chloro-4-hydroxy-N-[(1R,4R)-4-{4-[(3R)-3-(trifluoromethoxy)pyrrolidin-1-yl]-1H-pyrazol-1-yl}cyclohexyl]-3,4-dihydro-2H-1-benzopyran-2-carboxamide] here?
Answer: Its EC50 is 10 to 50 nM.

Question: `O=C(N[C@H]1CC[C@H](n2cc(N3CC[C@@H](OC(F)(F)F)C3)cn2)CC1)[C@H]1C[C@@H](O)c2cc(Cl)c(F)cc2O1` [Compound 582, (2R,4R)-6-chloro-7-fluoro-4-hydroxy-N-[(1R,4R)-4-{4-[(3R)-3-(trifluoromethoxy)pyrrolidin-1-yl]-1H-pyrazol-1-yl}cyclohexyl]-3,4-dihydro-2H-1-benzopyran-2-carboxamide] was tested. Which EC50 did it give?
Answer: Its EC50 is 10 to 50 nM.

Question: How did the EC50 turn out when `O=C(NC12CC(n3cc([C@H]4[C@@H]5CN(CC(F)(F)F)C[C@@H]54)cn3)(C1)C2)[C@H]1C[C@@H](O)c2cc(Cl)ccc2O1` [Compound 583, (2R,4R)-6-chloro-4-hydroxy-N-(3-{4-[(1R,5S,6s)-3-(2,2,2-trifluoroethyl)-3-azabicyclo[3.1.0]hexan-6-yl]-1H-pyrazol-1-yl}bicyclo[1.1.1]pentan-1-yl)-3,4-dihydro-2H-1-benzopyran-2-carboxamide] was run?
Answer: The EC50 was less than 10 nM.

Question: Which EC50 does the source give for `O=C(NC12CC(n3cc(OC[C@H]4C[C@H](OC(F)(F)F)C4)cn3)(C1)C2)[C@H]1C[C@@H](O)c2cc(Cl)ccc2O1` [Compound 584, (2R,4R)-6-chloro-4-hydroxy-N-[3-(4-{[(1r,3R)-3-(trifluoromethoxy)cyclobutyl]methoxy}-1H-pyrazol-1-yl)bicyclo[1.1.1]pentan-1-yl]-3,4-dihydro-2H-1-benzopyran-2-carboxamide] here?
Answer: The EC50 was less than 10 nM.
